Experimental data reported in US20110111400A1, “METHOD FOR ENHANCING CHEMICAL SENSITIVITY OR RADIOSENSITIVITY OF CANCER CELLS BY INHIBITING EXPRESSION OF TSPYL5” (Korea Atomic Energy Research Institute, priority 2009, published 2011).

Legend:
TSPYL5 gene [1] = test: RT-PCR of TSPYL5 expression level after siRNA transduction, H1299; assay type: cell-based, human; settings: H1299 cells, 40~80 nM RNAi, compared to siControl
Description: (§1) In order to compare the expression levels of TSPYL5 in lung cancer cell lines A549, H460, and H1299, reverse transcription polymerase chain reaction (RT-PCR) was performed. The RT-PCR was performed in the following manner: a mixture of 10 mM dNTPs, 5×RT buffer, 0.5 μg/μl oligo dT, addition of each of 4 μg of heat denaturated (70° C., 10 min) total RNA of lung cancer cell lines H460, A549, and H1299, and 200 U/μl M-MLV RTase, 0.02% diethyl pyrocarbonate (DEPC)-treated sterilized water to a final volume of 20 μl, followed by reaction at 45° C. for 30 min. Next, the mixture was heated to 94° C. for 5 min, and then snap-cooled on ice to deactivate the M-MLV RTase. 1 μl of the cDNA synthesized by the method was mixed with 10× buffer (MgCl2 free), 2.5 mM dNTPs, 10× MgCl2, and Taq DNA polymerase. 10 pmol of primer for TSPYL5 or β-actin was added to the mixture and amplified under the following conditions. Then, for TSPYL5 primer, EcoRI/Forward: 5′-[…]-3′ represented by SEQ ID No: 3 as a forward primer and EcoRI/reverse: 5′-CCGGAATTCTC AGTTGGATTGGCTCACCCC-3′ represented by SEQ ID NO: 4 as a reverse primer were used. Pre-denaturation at 94° C. for 5 min, denaturation at 94° C. for 1 min, annealing at 60° C. for 1.5 min, cycles of elongation at 72° C. for 1 min were performed, followed by post-elongation at 72° C. for 10 min. […]

TSPYL5 gene [2] = test: RT-PCR of TSPYL5 expression level after siRNA transduction, A549; assay type: cell-based, human; settings: A549 cells, 40~80 nM RNAi, compared to siControl
Description: as §1

Substance: C2-131714: 25mer TSPYL5 stealth-RNAi duplex oligoribonucleotide, SEQ ID Nos: 10 and 11 (chain 1 AAAGGUAGAACUGCAAGGGAUUGGG; chain 2 CCCAAUCCCUUGCAGUUCUACCUUU; Invitrogen Stealth RNAi, modifications not given here)
- expression levels of TSPYL5 (TSPYL5 gene [1]): reduced the most effectively
- expression levels of TSPYL5 (TSPYL5 gene [2]): reduced the most effectively
